Article PMC11631053, “A receptor-based assay to study the sweet and bitter tastes of sweeteners and binary sweet blends: the SWEET project” (Chemical Senses, 2024)

Target: TAS2R38-AVI (Homo sapiens, UniProt P59533, A262V)
Assay: Calcium mobilization assay, HEK293T-Gα16gust44 cells expressing TAS2R38-AVI
Procedure: Different concentration ranges were tested depending on the injected sweet compound. […] All of the concentration-receptor combinations were measured in triplicate, and each experiment was repeated at least 3 times. The Ca^2+ change was expressed as a fractional change in fluorescent light intensity: ΔF/F = (F − F0)/F0, where F was the fluorescent light intensity at each point, and F0 was the value of fluorescent light emitted prior to stimulus application. To calculate dose–response relationships, the changes in fluorescence upon stimulus application were averaged, mock-subtracted and baseline-corrected. The resulting obtained dose–response data were adjusted by using a 4-parameter logistic equation. The half-maximal effective concentration (EC50) was calculated by using SigmaPlot software (Systat Software, San Jose, CA, USA) as described in supplemental Supplementary Figs. S1, S2, and S3.

Chain of TAS2R38-AVI (P59533 whole entry A262V): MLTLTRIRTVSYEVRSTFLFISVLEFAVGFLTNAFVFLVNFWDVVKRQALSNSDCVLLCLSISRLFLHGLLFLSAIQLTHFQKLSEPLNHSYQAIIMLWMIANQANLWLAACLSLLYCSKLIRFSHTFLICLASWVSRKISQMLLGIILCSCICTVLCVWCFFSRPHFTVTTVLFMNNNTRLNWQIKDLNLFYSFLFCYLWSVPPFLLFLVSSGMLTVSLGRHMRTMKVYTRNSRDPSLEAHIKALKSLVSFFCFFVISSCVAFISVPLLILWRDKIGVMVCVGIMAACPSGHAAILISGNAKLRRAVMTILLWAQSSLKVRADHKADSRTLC

O=C(CO)[C@H](O)[C@H](O)[C@H](O)CO [D-allulose] was tested, and the “concentrations at which TAS2R38-AVI was activated” value was over 300 mM.
